Results from patent publication US10065963B2 (Incyte Corporation, priority 2015, dated 2018).
Structures can show the parent of a compound that is named as a salt. Where two headings read alike, the source gives them in different places.

How the values were obtained:
[1] = tested on: Phosphorylated Ribosomal Protein S6 (RPS6) in THP-1 cells; assay: THP-1 RPS6 ELISA assay; format: cell-based, human; conditions: 10 nM MCP-1, read-out: PI3Kγ_THP1_RPS6_ELISA IC50
[2] = target: PI3Kδ (p110δ/p85α) Recombinant Human Protein (Homo sapiens (Human), UniProt O00329); assay: PI3Kδ scintillation proximity assay; format: biochemical; conditions: 2 μM ATP, 20 μM PIP2
Sequence of PI3Kδ (p110δ/p85α) Recombinant Human Protein (O00329 whole entry): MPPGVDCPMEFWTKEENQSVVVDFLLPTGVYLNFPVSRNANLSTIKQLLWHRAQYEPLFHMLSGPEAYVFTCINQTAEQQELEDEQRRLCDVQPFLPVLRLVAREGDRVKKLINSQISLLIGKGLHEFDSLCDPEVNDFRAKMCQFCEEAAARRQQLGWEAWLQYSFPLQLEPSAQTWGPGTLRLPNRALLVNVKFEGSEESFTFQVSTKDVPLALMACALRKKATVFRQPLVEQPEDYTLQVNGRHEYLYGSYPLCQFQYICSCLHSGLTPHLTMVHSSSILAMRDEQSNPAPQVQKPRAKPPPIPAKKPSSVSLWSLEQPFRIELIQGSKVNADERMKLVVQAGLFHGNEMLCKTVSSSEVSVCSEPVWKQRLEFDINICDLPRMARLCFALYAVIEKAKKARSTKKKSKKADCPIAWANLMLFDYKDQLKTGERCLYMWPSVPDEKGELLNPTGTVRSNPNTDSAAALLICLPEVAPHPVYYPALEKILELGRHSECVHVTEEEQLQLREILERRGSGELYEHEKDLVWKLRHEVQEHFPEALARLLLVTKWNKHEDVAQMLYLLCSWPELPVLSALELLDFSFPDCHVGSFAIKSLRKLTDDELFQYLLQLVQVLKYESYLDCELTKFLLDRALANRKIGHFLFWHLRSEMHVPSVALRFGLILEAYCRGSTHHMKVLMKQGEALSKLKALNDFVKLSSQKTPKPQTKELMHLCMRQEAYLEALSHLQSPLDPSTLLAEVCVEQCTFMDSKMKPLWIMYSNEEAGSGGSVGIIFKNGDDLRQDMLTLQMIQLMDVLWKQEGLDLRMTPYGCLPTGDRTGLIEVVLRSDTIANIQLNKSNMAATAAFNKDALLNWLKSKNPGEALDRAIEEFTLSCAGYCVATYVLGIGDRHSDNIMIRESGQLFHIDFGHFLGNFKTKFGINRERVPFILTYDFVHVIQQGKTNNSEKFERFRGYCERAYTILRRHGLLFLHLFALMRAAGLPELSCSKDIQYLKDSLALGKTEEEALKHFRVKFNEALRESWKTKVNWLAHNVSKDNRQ
Sequence of PI3Kδ (p110δ/p85α) Recombinant Human Protein (P27986 whole entry partner): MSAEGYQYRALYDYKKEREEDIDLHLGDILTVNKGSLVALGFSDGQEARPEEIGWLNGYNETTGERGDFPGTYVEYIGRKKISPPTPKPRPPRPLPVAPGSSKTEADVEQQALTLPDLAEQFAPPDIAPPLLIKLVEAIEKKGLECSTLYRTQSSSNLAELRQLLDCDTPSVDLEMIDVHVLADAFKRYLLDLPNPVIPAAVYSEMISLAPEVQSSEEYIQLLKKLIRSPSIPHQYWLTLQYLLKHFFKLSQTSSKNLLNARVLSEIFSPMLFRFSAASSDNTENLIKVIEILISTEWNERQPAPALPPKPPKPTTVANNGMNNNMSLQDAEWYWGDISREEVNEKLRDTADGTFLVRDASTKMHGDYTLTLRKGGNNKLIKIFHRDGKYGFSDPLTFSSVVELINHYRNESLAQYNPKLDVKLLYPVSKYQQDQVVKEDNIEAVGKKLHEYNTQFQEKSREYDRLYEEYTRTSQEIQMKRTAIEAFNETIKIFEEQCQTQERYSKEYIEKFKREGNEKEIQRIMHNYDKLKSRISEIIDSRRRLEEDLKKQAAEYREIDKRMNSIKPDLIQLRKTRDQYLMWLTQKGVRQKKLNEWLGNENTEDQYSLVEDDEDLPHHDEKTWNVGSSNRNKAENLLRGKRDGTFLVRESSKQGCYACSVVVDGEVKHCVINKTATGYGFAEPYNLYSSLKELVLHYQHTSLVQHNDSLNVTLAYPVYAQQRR

[3] = target: PI3Kγ (p110γ) Recombinant Human Protein (Homo sapiens (Human), UniProt P48736); assay: PI3K-γ scintillation proximity assay; format: biochemical; conditions: 2 μM ATP, 20 μM PIP2
Sequence of PI3Kγ (p110γ) Recombinant Human Protein (P48736 whole entry): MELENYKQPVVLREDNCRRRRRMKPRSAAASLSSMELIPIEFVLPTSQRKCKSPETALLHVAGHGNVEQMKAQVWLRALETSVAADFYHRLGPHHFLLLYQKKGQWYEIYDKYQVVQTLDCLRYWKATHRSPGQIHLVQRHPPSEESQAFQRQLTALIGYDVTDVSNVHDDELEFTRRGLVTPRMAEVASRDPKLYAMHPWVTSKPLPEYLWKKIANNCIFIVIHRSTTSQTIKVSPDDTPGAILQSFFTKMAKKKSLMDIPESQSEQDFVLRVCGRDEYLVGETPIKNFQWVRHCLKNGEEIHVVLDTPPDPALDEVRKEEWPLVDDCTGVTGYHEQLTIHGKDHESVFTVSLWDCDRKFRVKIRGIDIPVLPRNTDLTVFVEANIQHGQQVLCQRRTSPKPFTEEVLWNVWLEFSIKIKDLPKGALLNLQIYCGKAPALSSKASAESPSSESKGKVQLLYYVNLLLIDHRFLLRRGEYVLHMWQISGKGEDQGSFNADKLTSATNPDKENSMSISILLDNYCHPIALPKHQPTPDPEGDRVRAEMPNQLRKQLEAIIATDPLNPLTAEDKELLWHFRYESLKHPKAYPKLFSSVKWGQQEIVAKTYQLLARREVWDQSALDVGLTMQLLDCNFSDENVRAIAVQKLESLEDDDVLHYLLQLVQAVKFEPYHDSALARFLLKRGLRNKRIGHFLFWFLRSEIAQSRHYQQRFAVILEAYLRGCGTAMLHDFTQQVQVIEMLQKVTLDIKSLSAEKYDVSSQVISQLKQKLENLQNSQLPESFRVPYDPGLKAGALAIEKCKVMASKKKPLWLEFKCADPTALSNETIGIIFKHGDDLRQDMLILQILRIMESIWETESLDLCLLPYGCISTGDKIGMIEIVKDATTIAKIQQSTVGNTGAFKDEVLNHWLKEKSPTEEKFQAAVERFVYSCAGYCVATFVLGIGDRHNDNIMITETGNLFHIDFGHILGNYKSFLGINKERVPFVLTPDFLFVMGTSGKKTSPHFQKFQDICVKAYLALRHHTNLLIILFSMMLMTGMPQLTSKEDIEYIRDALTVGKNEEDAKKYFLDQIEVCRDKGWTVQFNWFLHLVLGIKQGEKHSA

[4] = Homo sapiens, THP-1, THP-1 cells

Row | IC50 [1, 4] [nM] | IC50 [2] [nM] | IC50 [3] [nM] | IC50 ([1]; THP-1 cells) [nM] | SMILES
1 | < 500 | < 100 | < 100 | – | CC(NC(=O)c1c(N)nn2cccnc12)c1cc(Cl)c2cncn2c1N1CCS(=O)(=O)CC1 (stereo not drawn) [Example 36, 2-Amino-N-(1-[8-chloro-5-(1,1-dioxidothiomorpholin-4-yl)imidazo[1,5-a]pyridin-6-yl]ethyl)pyrazolo[1,5-a]pyrimidine-3-carboxamide trifluoroacetate salt]
2 | < 500 | < 500 | < 100 | – | CC(NC(=O)c1c(N)nn2cccnc12)c1cc(Cl)c2cncn2c1N1CC[S+]([O-])CC1 (stereo not drawn) [Example 37, 2-Amino-N-(1-[8-chloro-5-(1-oxidothiomorpholin-4-yl)imidazo[1,5-a]pyridin-6-yl]ethyl)pyrazolo[1,5-a]pyrimidine-3-carboxamide trifluoroacetate salt]
3 | < 500 | < 100 | < 100 | – | CCOc1c(C(C)NC(=O)c2c(N)nn3ccc(-c4cncc(OC)c4)nc23)cc(Cl)c2cn[nH]c12 (stereo not drawn) [Example 41, 2-Amino-N-(1-(4-chloro-7-ethoxy-1H-indazol-6-yl)ethyl)-5-(5-methoxypyridin-3-yl)pyrazolo[1,5-a]pyrimidine-3-carboxamide]
4 | < 500 | < 100 | < 100 | – | CCOc1c(C(C)NC(=O)c2c(N)nn3ccc(-c4cncc(CO)c4)nc23)cc(Cl)c2cn[nH]c12 (stereo not drawn) [Example 42, 2-Amino-N-(1-(4-chloro-7-ethoxy-1H-indazol-6-yl)ethyl)-5-(5-(hydroxymethyl)pyridin-3-yl)pyrazolo[1,5-a]pyrimidine-3-carboxamide]
5 | < 500 | < 100 | < 100 | – | CCOc1c(C(C)NC(=O)c2c(N)nc3ccc(Cl)nn23)cc(Cl)c2cn[nH]c12 (stereo not drawn) [Example 45, 2-Amino-6-chloro-N-(1-(4-chloro-7-ethoxy-1H-indazol-6-yl)ethyl)imidazo[1,2-b]pyridazine-3-carboxamide]
6 | < 500 | < 100 | < 100 | – | CCOc1c(C(C)NC(=O)c2c(N)nc3ccc(-c4cncc(CO)c4)nn23)cc(Cl)c2c(Cl)n[nH]c12 (stereo not drawn) [Example 49, 2-Amino-N-(1-(3,4-dichloro-7-ethoxy-1H-indazol-6-yl)ethyl)-6-(5-(hydroxymethyl)pyridin-3-yl)imidazo[1,2-b]pyridazine-3-carboxamide]
7 | < 500 | < 100 | < 100 | – | CCOc1c(C(C)NC(=O)c2c(N)nn3ccc(-c4cccnc4)nc23)cc(Cl)c2cn[nH]c12 (stereo not drawn) [Example 50, 2-Amino-N-[1-(4-chloro-7-ethoxy-1H-indazol-6-yl)ethyl]-5-pyridin-3-ylpyrazolo[1,5-a]pyrimidine-3-carboxamide bis(trifluoroacetate)]
8 | > 1000 | < 2000 | < 100 | – | CCOc1c(C(C)NC(=O)c2c(N)nn3cccnc23)cc(Cl)c2c(Br)n(CCO)nc12 (stereo not drawn) [Example 53, 2-Amino-N-(1-(3-bromo-4-chloro-7-ethoxy-2-(2-hydroxyethyl)-2H-indazol-6-yl)ethyl)pyrazolo[1,5-a]pyrimidine-3-carboxamide]
9 | – | < 100 | < 100 | > 1000 | CCOc1c(C(C)NC(=O)c2c(N)nn3cccnc23)cc(Cl)c2c(Br)nn(CCO)c12 (stereo not drawn) [Example 54, 2-Amino-N-(1-(3-bromo-4-chloro-7-ethoxy-1-(2-hydroxyethyl)-1H-indazol-6-yl)ethyl)pyrazol[1,5-a]pyrimidine-3-carboxamide trifluoroacetate]
10 | < 500 | < 100 | < 100 | – | CC(NC(=O)c1c(N)nn2cccnc12)c1cc(Cl)c2ccnn2c1N1CCC(C#N)CC1 (stereo not drawn) [Example 56, 2-Amino-N-(1-(4-chloro-7-(4-cyanopiperidin-1-yl)pyrazolo[1,5-a]pyridin-6-yl)ethyl)pyrazolo[1,5-a]pyrimidine-3-carboxamide trifluoroacetate]
11 | < 500 | < 100 | < 100 | – | CC(NC(=O)c1c(N)nn2cccnc12)c1cc(Cl)c2ccnn2c1-c1cccnc1 (stereo not drawn) [Example 59, 2-Amino-N-(1-(4-chloro-7-(pyridin-3-yl)pyrazolo[1,5-a]pyridin-6-yl)ethyl)pyrazolo[1,5-a]pyrimidine-3-carboxamide trifluoroacetate]
12 | < 500 | < 500 | < 100 | – | CC(NC(=O)c1c(N)nn2cccnc12)c1cc(Cl)c2cncn2c1C1CCCC1 (stereo not drawn) [Example 62, 2-amino-N-(1-(8-chloro-5-cyclopentylimidazo[1,5-a]pyridin-6-yl)ethyl)pyrazolo[1,5-a]pyrimidine-3-carboxamide trifluoroacetate]
13 | < 500 | < 500 | < 500 | – | CC(NC(=O)c1c(N)nn2cccnc12)c1cc(Cl)c2cnnn2c1-c1ccccc1 (stereo not drawn) [Example 63, 2-Amino-N-(1-(4-chloro-7-phenyl-[1,2,3]triazolo[1,5-a]pyridin-6-yl)ethyl)pyrazolo[1,5-a]pyrimidine-3-carboxamide trifluoroacetate]

Second part, the compound before the results:

Row | SMILES | IC50 [1, 4] [nM] | IC50 [2] [nM] | IC50 [3] [nM] | IC50 ([1]; THP-1 cells) [nM]
14 | CC(NC(=O)c1c(N)nn2cccnc12)c1cc(Cl)c2cncn2c1N1CCS(=O)(=O)CC1C (stereo not drawn) [Example 38B, 2-Amino-N-(1-[8-chloro-5-(3-methyl-1,1-dioxidothiomorpholin-4-yl)imidazo[1,5-a]pyridin-6-yl]ethyl)pyrazolo[1,5-a]pyrimidine-3-carboxamide trifluoroacetate salt] | < 500 | < 100 | < 100 | –
15 | CC(NC(=O)c1c(N)nn2cccnc12)c1cc(Cl)c2cncn2c1N1CCS(=N)(=O)CC1 (stereo not drawn) [Example 39, 2-Amino-N-(1-[8-chloro-5-(1-imino-1-oxidothiomorpholin-4-yl)imidazo[1,5-a]pyridin-6-yl]ethyl)pyrazolo[1,5-a]pyrimidine-3-carboxamide] | < 500 | < 100 | < 100 | –
16 | CC(NC(=O)c1c(N)nn2cccnc12)c1cc(Cl)c2cncn2c1N1CCS(=O)(=O)C(C)(C)C1 (stereo not drawn) [Example 40, 2-Amino-N-(1-[8-chloro-5-(2,2-dimethyl-1,1-dioxidothiomorpholin-4-yl)imidazo[1,5-a]pyridin-6-yl]ethyl)pyrazolo[1,5-a]pyrimidine-3-carboxamide trifluoroacetate salt] | < 500 | < 100 | < 100 | –
17 | CCOc1c(C(C)NC(=O)c2c(N)nn3ccc(-c4cncc(OC)c4)nc23)cc(Cl)c2c(Cl)n[nH]c12 (stereo not drawn) [Example 43, 2-Amino-N-(1-(3,4-dichloro-7-ethoxy-1H-indazol-6-yl)ethyl)-5-(5-methoxypyridin-3-yl)pyrazolo[1,5-a]pyrimidine-3-carboxamide trifluoroacetate salt] | < 500 | < 100 | < 100 | –
18 | CCOc1c(C(C)NC(=O)c2c(N)nn3ccc(N4CCCCC4)nc23)cc(Cl)c2cn[nH]c12 (stereo not drawn) [Example 44, 2-Amino-N-(1-(4-chloro-7-ethoxy-1H-indazol-6-yl)ethyl)-5-(piperidin-1-yl)pyrazolo[1,5-a]pyrimidine-3-carboxamide trifluoroacetate salt] | > 1000 | < 2000 | < 500 | –
19 | CCOc1c(C(C)NC(=O)c2c(N)nc3ccc(-c4cncc(CO)c4)nn23)cc(Cl)c2cn[nH]c12 (stereo not drawn) [Example 48, 2-Amino-N-(1-(4-chloro-7-ethoxy-1H-indazol-6-yl)ethyl)-6-(5-(hydroxymethyl)pyridin-3-yl)imidazo[1,2-b]pyridazine-3-carboxamide] | < 500 | < 100 | < 100 | –
20 | CCOc1c(C(C)NC(=O)c2c(N)nn3cccnc23)cc(Cl)c2c(Br)n[nH]c12 (stereo not drawn) [Example 52, 2-Amino-N-(1-(3-bromo-4-chloro-7-ethoxy-1H-indazol-6-yl)ethyl)pyrazolo[1,5-a]pyrimidine-3-carboxamide trifluoroacetate] | < 500 | < 500 | < 100 | –
21 | CC(NC(=O)c1c(N)nn2cccnc12)c1cc(Cl)c2c(C#N)n[nH]c2c1-c1ccccc1 (stereo not drawn) [Example 55, 2-Amino-N-(1-(4-chloro-3-cyano-7-phenyl-1H-indazol-6-yl)ethyl)pyrazolo[1,5-a]pyrimidine-3-carboxamide trifluoroacetate] | > 1000 | < 2000 | < 100 | –
22 | C[C@H](NC(=O)c1c(N)nn2cccnc12)c1cc(Cl)c2ccnn2c1N1CCS(=O)(=O)CC1 [Example 57, (S)-2-Amino-N-(1-(4-chloro-7-(1,1-dioxidothiomorpholino)pyrazolo[1,5-a]pyridin-6-yl)ethyl)pyrazolo[1,5-a]pyrimidine-3-carboxamide trifluoroacetate] | < 500 | < 100 | < 100 | –
23 | C[C@H](NC(=O)c1c(N)nn2cccnc12)c1cc(Cl)c2c(F)cnn2c1N1CCS(=O)(=O)CC1 [Example 58, (S)-2-Amino-N-(1-(4-chloro-7-(1,1-dioxidothiomorpholino)-3-fluoropyrazolo[1,5-a]pyridin-6-yl)ethyl)pyrazolo[1,5-a]pyrimidine-3-carboxamide trifluoroacetate] | < 500 | < 100 | < 100 | –
24 | CC(NC(=O)c1c(N)nn2cccnc12)c1cc(Cl)c2c(C#N)cnn2c1N1CCS(=O)(=O)CC1 (stereo not drawn) [Example 60, 2-Amino-N-(1-(4-chloro-3-cyano-7-(1,1-dioxidothiomorpholino)pyrazolo[1,5-a]pyridin-6-yl)ethyl)pyrazolo[1,5-a]pyrimidine-3-carboxamide trifluoroacetate] | < 500 | < 500 | < 100 | –
25 | CC(NC(=O)c1c(N)nn2cccnc12)c1cc(Cl)c2c(C#N)cnn2c1N1CCC[C@H](O)C1 (stereo partly drawn) [Example 61, 2-Amino-N-(1-(4-chloro-3-cyano-7-((S)-3-hydroxypiperidin-1-yl)pyrazolo[1,5-a]pyridin-6-yl)ethyl)pyrazolo[1,5-a]pyrimidine-3-carboxamide trifluoroacetate] | < 1000 | < 2000 | < 100 | –
